Key:
Type in all cases: in vivo
Matricaria inodora = assay: Pre-emergence herbicidal effect; settings: 1280 g/ha, visual assessment after 3 weeks
Excerpt: (§1) 1. Pre-Emergence Herbicidal Effect and Crop Plant Compatibility Seeds of monocotyledonous and dicotyledonous weed plants and crop plants are placed in wood-fiber pots in sandy loam and covered with soil. The inventive compounds, formulated in the form of wettable powders (WP) or as emulsion concentrates (EC), are then applied to the surface of the covering soil as an aqueous suspension or emulsion at a water application rate of 600 to 800 I/ha (converted) with addition of 0.2% wetting agent. After the treatment, the pots are placed in a greenhouse and kept under good growth conditions for the test plants. The damage to the test plants is assessed visually after a test period of 3 weeks by comparison with untreated controls (herbicidal activity in percent (%): 100% action=the plants have died, 0% action=like control plants). LOLMU: Lolium multiflorum MATIN: Matricaria inodora

Lolium multiflorum = assay: Pre-emergence herbicidal effect; settings: 1280 g/ha, visual assessment after 3 weeks
Excerpt: as §1

Setaria viridis = assay: Pre-emergence herbicidal effect; settings: 1280 g/ha, visual assessment after 3 weeks
Excerpt: as §1, with “POLCO: Polygonum convolvulus SETVI: Setaria viridis” for “LOLMU: Lolium multiflorum MATIN: Matricaria inodora”

Polygonum convolvulus = assay: Pre-emergence herbicidal effect; settings: 1280 g/ha, visual assessment after 3 weeks
Excerpt: as §1, with “POLCO: Polygonum convolvulus SETVI: Setaria viridis” for “LOLMU: Lolium multiflorum MATIN: Matricaria inodora”

Abutilon theophrasti [1] = assay: Pre-emergence herbicidal effect; settings: 1280 g/ha, visual assessment after 3 weeks
Excerpt: as §1, with “ABUTH: Abutilon theophrasti ALOMY: Alopecurus myosuroides” for “LOLMU: Lolium multiflorum MATIN: Matricaria inodora”

Alopecurus myosuroides = assay: Pre-emergence herbicidal effect; settings: 1280 g/ha, visual assessment after 3 weeks
Excerpt: as §1, with “ABUTH: Abutilon theophrasti ALOMY: Alopecurus myosuroides” for “LOLMU: Lolium multiflorum MATIN: Matricaria inodora”

Viola tricolor = assay: Pre-emergence herbicidal effect; settings: 1280 g/ha, visual assessment after 3 weeks
Excerpt: as §1, with “VIOTR: Viola tricolor” for “LOLMU: Lolium multiflorum MATIN: Matricaria inodora”

Amaranthus retroflexus = assay: Pre-emergence herbicidal effect; settings: 1280 g/ha, visual assessment after 3 weeks
Excerpt: as §1, with “AMARE: Amaranthus retroflexus ECHCG: Echinochloa crus-galli” for “LOLMU: Lolium multiflorum MATIN: Matricaria inodora”

Echinochloa crus-galli [2] = assay: Pre-emergence herbicidal effect; settings: 1280 g/ha, visual assessment after 3 weeks
Excerpt: as §1, with “AMARE: Amaranthus retroflexus ECHCG: Echinochloa crus-galli” for “LOLMU: Lolium multiflorum MATIN: Matricaria inodora”

Echinochloa crus-galli [3] = assay: Post-emergence herbicidal effect; settings: 1280 g/ha, visual rating after about 3 weeks
Procedure: (§2) AMARE: Amaranthus retroflexus ECHCG: Echinochloa crus-galli 2. Post-Emergence Herbicidal Effect and Crop Plant Compatibility Seeds of monocotyledonous and dicotyledonous weed and crop plants are placed in sandy loam in wood-fiber pots, covered with soil and cultivated in a greenhouse under good growth conditions. 2 to 3 weeks after sowing, the test plants are treated at the one-leaf stage. The compounds according to the invention, formulated in the form of wettable powders (WP) or as emulsion concentrates (EC), are then sprayed as aqueous suspension or emulsion at a water application rate of 600 to 800 I/ha (converted) with the addition of 0.2% of wetting agent onto the green parts of the plants. After the test plants have been kept in the greenhouse under optimum growth conditions for about 3 weeks, the activity of the preparations is rated visually in comparison to untreated controls (herbicidal activity in percent (%): 100% activity=the plants have died, 0% activity=like control plants).

Abutilon theophrasti [4] = assay: Post-emergence herbicidal effect; settings: 1280 g/ha, visual rating after about 3 weeks
Procedure: as §2, with “ABUTH: Abutilon theophrasti ALOMY: Alopecurus myosuroides” for “AMARE: Amaranthus retroflexus ECHCG: Echinochloa crus-galli”

Structure (SMILES)	herbicidal activity MATIN (Matricaria inodora) [%]	herbicidal activity LOLMU (Lolium multiflorum) [%]	herbicidal activity SETVI (Setaria viridis) [%]	herbicidal activity POLCO (Polygonum convolvulus) [%]	herbicidal activity ABUTH (Abutilon theophrasti [1]) [%]	herbicidal activity ALOMY (Alopecurus myosuroides) [%]	herbicidal activity VIOTR (Viola tricolor) [%]	herbicidal activity AMARE (Amaranthus retroflexus) [%]	herbicidal activity ECHCG (Echinochloa crus-galli [2]) [%]	herbicidal activity ECHCG (Echinochloa crus-galli [3]) [%]	herbicidal activity ABUTH (Abutilon theophrasti [4]) [%]
CCc1ccc2c(c1)C(Nc1cnc(S(C)(=O)=O)nc1C(=O)O)CCO2 (racemic) [compound 68]	100	90	100	100	100	100	100	100	100	90	90
CCc1ccc2c(c1)C(Nc1cnc(S(C)(=O)=O)nc1)CCO2 (racemic) [compound 65]	100	90	100	100	100	90	100	100	100	100	90
Cc1ccc2c(c1)[C@H](Nc1cnc(S(C)(=O)=O)nc1)[C@@H](C)C2 [compound 134]	100	100	100	100	100	100	100	100	100	90	90
